We go through 52 compounds from PubChem BioAssay AID179 (DTP/NCI, 2004).

By EC50 is commonly meant the concentration giving half of the maximal effect. A word on the IC50: it is the concentration needed to halve the response being measured. High values mean a need for much substance, low ones inhibition by little substance.

The assay deals with CEM cells HIV-1 protection, formazan growth assay. Put plainly: NCI AIDS Antiviral Assay. Particulars: for IC50: measured here: growth of uninfected CEM cells. Summed up: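 Protection of CEM cells against HIV-1 measured as cell growth via soluble formazan read-out, with five concentrations tested on both infected and uninfected cells; failure to protect may reflect toxicity.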

Activity calls are given as the source filed them.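 Rule for the calls: active = compounds giving half or more protection of infected cells from virus-caused growth loss, again on retest; inactive = the rest.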 Where a SMILES comes first, the peptide text is derived from it. Bridges are numbered along the chain shown (N, C = ends). Roman numbers before positions name the chains, in order. The star is where a group is joined. Cbz = O=C(OCc1ccccc1)* Where only a bound is given, the exact number is not on record here.

With `Clc1ccc(-n2nnc(C3=NCCCN3)c2-c2ccccc2)cc1`, the EC50 is 129 µM and the IC50 amounted to 148 µM.
In the case of `C[C@H]1C[C@H]2[C@@H]3CCC4=CC(=O)C=C[C@]4(C)[C@@]3(F)[C@@H](O)C[C@]2(C)C1=O`, the result was inactive.
On the same count and under the same terms, for `Cc1cccc(NC(=O)c2cc3cc(N=Nc4ccc(Br)cc4)ccc3oc2=O)c1` the value was “inactive”; for `Cn1c(O)c(C=Nc2ccccc2[N+](=O)[O-])c(=O)n(C)c1=O`, “inactive”.
In the case of `O=C(CCCN1CCC2(CC1)CC(=O)N(N1CCOCC1)C2=O)c1ccccc1`, the EC50 is greater than 200 µM and the concentration for half-maximal inhibition (IC50) is greater than 200 µM.
With `O=C(OCC1CCCN2CCCCC12)c1cccnc1` (stereo not drawn), the EC50 was greater than 200 µM and the half-inhibitory concentration (IC50) is greater than 200 µM.
Consider `O=C1CC(C(CC(=O)c2ccccc2)c2ccccc2)C(=O)c2ccccc2N1` (stereo not drawn), for which the EC50 was greater than 200 µM and the IC50 is 12.6 µM.
For `NC(=O)NCCSC1(SCCNC(N)=O)CCCCC1`, in that order: greater than 200 µM and greater than 200 µM.
Turning to `O=C(NCCCCCCNC(=O)n1cc(F)c(=O)[nH]c1=O)NC1C(O)OC(CO)C(O)C1O` (stereo not drawn), the outcome was inactive.
Regarding `C=C[C@H](C)[C@H](O)c1c(O)c2c(c3c(CCC)cc(=O)oc13)OC(C)(C)C=C2`, the EC50 is greater than 200 µM and the IC50 came to 49 µM.
Consider `CCN(CC)CCCNc1nccc2c(C)c3c(cc12)c1cnccc1n3C`, for which the outcome was inactive.
Regarding `CN(C)CCN1CCc2c([nH]c3ccccc23)C1c1cccnc1` (stereo not drawn), the EC50 is greater than 6.31 µM and the IC50 was greater than 6.31 µM.
Consider `Clc1ccc(-n2nnc(C3=NCCN3)c2-c2ccccc2)cc1`, for which the EC50 was greater than 30.9 µM and the IC50 was greater than 30.9 µM.
`CN(C)CCNc1c([N+](=O)[O-])sc2ccc(Cl)cc12`: the EC50 is greater than 200 µM and the IC50 came to 16.6 µM.
For `CCCCC1(NN=C2CCCCC2)C(=O)N(c2ccccc2)N(c2ccccc2)C1=O` the same measures were greater than 200 µM and 102 µM.
For the compound `Nc1nc(N)c2cc(Cl)ccc2n1`, the EC50 was greater than 1290 µM and the IC50 was 26.9 µM.
For `Cc1ccc(S(=O)(=O)c2c3[nH]c4ccccc4nc3n3c2nc2ccccc23)cc1`, in that order: greater than 120 µM and greater than 120 µM.
Take `N#CC1=C(N)n2c(s/c(=C\c3ccc(Cl)cc3)c2=O)=C(c2nc3ccccc3[nH]2)C1c1ccc(Cl)cc1` (stereo not drawn): the EC50 was greater than 5.01 µM and the IC50 was greater than 5.01 µM.
In the case of `O=C(CCCN1CCC2(CC1)C(=O)NCN2c1ccccc1)c1ccccc1`, the EC50 is greater than 200 µM and the IC50 came to 34.7 µM.
For `Cc1ccc(S(=O)(=O)NCCN(CCNS(=O)(=O)c2ccc(C)cc2)S(=O)(=O)c2ccc(C)cc2)cc1` the same measures were greater than 200 µM and greater than 200 µM.
`CCOC(=O)CC1CN(Cc2ccccc2)CCC1=O` (stereo not drawn): the outcome was inactive.
Take `COc1cc([C@@H]2CC3(C)OC(=O)C2CC3C)cc(OC)c1OC` (stereo partly drawn): the EC50 is greater than 562 µM and the IC50 is greater than 562 µM.
As for `c1cc2nc(c1)CSCCCCCCCCSC2`, the EC50 was greater than 35.5 µM and the IC50 was greater than 35.5 µM.
Turning to `COc1ccc2cc(C(C)C(=O)N3C(=O)OCC3(C)C)ccc2c1` (stereo not drawn), the EC50 was greater than 200 µM and the IC50 came out at 91.2 µM.
For `Cc1cc2c(C(C)C)c(O)c(O)c(C=Nc3ccc4ccccc4c3)c2c(O)c1-c1c(C)cc2c(C(C)C)c(O)c(O)c(C=Nc3ccc4ccccc4c3)c2c1O`, in that order: 10.7 µM and 22.9 µM.
For `Cc1ccc(N=C[N-]c2ccc(C)cc2)cc1.Cc1ccc(N=C[N-]c2ccc(C)cc2)cc1.O=C([O-])C(F)(F)F.O=C([O-])C(F)(F)F.[OH3+].[OH3+].[Rh+2].[Rh+2]` the same measures were greater than 14.1 µM and greater than 14.1 µM.
For `C/C(CC(=O)Nc1cc(C)ccc1C)=N\NC(=O)c1ccncc1` the same measures were greater than 398 µM and 20.9 µM.
As to `COc1ccccc1NC(=O)/C(=C\n1c(=S)[nH]c2ccc([N+](=O)[O-])cc21)C(C)=O`, the EC50 was greater than 200 µM and the IC50 amounted to 112 µM.
For `CCCCOC(=O)/C(O)=C(\C=NC(=S)c1cccnc1)C(=O)C=C(C)C` the same measures were greater than 200 µM and 41.7 µM.
For `CN=C(NC)N(C)c1nc(=[N+](C)C)ss1`, the result was inactive.
Turning to `CCOC(=O)C(C)(c1c(C)n(C)c2ccccc12)c1c(C)n(C)c2ccccc12`, the EC50 was greater than 200 µM and the IC50 is greater than 100 µM.
Take `CC(C)(C)c1ccc(-n2c3nc(=O)n(-c4ccccc4CO)c(=O)c-3cc3ccccc32)cc1`: the EC50 was greater than 200 µM and the IC50 amounted to 23.4 µM.
For `C1CN2C(=N1)N1CCN=C1N1CCN=C21`, in that order: greater than 174 µM and greater than 174 µM.
Turning to `CCCCCCCCCCCCCCC(C(=O)O)C(=O)O`, the EC50 was greater than 832 µM and the IC50 was 398 µM.
For `COc1cc(-c2cc(=O)c3c(O)cc(O)cc3o2)cc(OC)c1OC`, in that order: greater than 64.6 µM and greater than 64.6 µM.
For `O=C1/C(=C/c2ccc(F)cc2)Cc2ccccc21` the same measures were greater than 30.2 µM and greater than 30.2 µM.
In the case of `O=CC(=O)c1ccccc1`, the outcome was inactive.
On the same count and under the same terms, the value for `COc1ccc2cccc(C(=O)c3ccc(C)c4c3CCC4)c2c1` was “inactive”.
Regarding `CCCCCCCCCCCc1c(O)c(O)cc2nc3ccc(SCCC)cc3nc12`, the EC50 is greater than 16.2 µM and the IC50 stood at 9.33 µM.
For `O=C(c1c(F)c(F)c(F)c(F)c1F)n1c(=O)[nH]c2ccccc21` the same measures were greater than 200 µM and 10.7 µM.
For the compound `O=C1NC(=O)C(=CN2C(=O)/C(=C/c3ccc([N+](=O)[O-])cc3)SC2=S)C(=O)N1`, the EC50 is greater than 200 µM and the IC50 turned out to be 115 µM.
For `CCOC(=O)C(Cc1ccc(O)cc1)NC(=O)C(CSSCC(NC(=O)OCc1ccccc1)C(=O)NC(Cc1ccc(O)cc1)C(=O)OCC)NC(=O)OCc1ccccc1` (stereo not drawn) (I: Cbz-Cys-Tyr-OEt / II: Cbz-Cys-Tyr-OEt; disulfide I:1-II:1; configuration not given here) the same measures were greater than 100 µM and 15.5 µM.
For `Oc1ccc2ccccc2c1-c1c(Nc2ccccc2)ccc2ccccc12`, in that order: greater than 50.1 µM and 8.91 µM.
Turning to `COc1cc(OC)c2c(O)c3c(cc2c1)CC(C)(C)CC3=O`, the EC50 was greater than 2 µM and the half-inhibitory concentration (IC50) is 1.38 µM.
For `CN(/N=C\c1ccnc2ccccc12)c1ccccc1`, the result was inactive.
In the case of `Clc1ccc(N=C/C=C/Nc2ccc(Cl)cn2)nc1`, the EC50 was greater than 200 µM and the 50% inhibitory concentration (IC50) worked out at 13.8 µM.
For `CC(=O)OC12c3ccccc3-c3ccccc3C1C1C(=O)OC(=O)C12` (stereo not drawn) the same measures were greater than 282 µM and greater than 282 µM.
For `C(=C(Sc1ccccc1)Sc1ccccc1)C(Sc1ccccc1)c1ccccc1` (stereo not drawn), in that order: greater than 200 µM and greater than 200 µM.
For the compound `O=P(OC1=CCCCC1)(c1ccccc1)c1ccccc1`, the EC50 was greater than 200 µM and the IC50 turned out to be 81.3 µM.
For `CCCCCCCCCCCC(=O)c1c(O)cc(C)oc1=O`, in that order: greater than 100 µM and 5.37 µM.
For `CCCC1C(=O)N2C(N(C)C)=Nc3ccc(C)cc3N2C1=O` (stereo not drawn), in that order: greater than 832 µM and 457 µM.
In the case of `CC1CC(C#N)=C2NCCCCN2C1=O` (stereo not drawn), the outcome was inactive.
